# Columns and labels:
# Assay type in all cases: cell-based, Pseudomonas aeruginosa
# [1] = test system: clinical strains of PA isolated from human burn patients; experiment: Broth based killing assay on clinical strains; conditions: gel formulation; 2 mM Na2-EDTA and/or 30 mM NaNO2; strains with varying antibiotic sensitivity and resistance
# Protocol: The efficacy of the AB569 gel formulation was tested on different clinical strains of PA isolated from human burn patients with varying sensitivity and resistance to antibiotics using a broth based killing assay.
# (§1) Bioluminescent PA-Xen41 was grown overnight in LB media at 37° C. with shaking. Overnight cultures were diluted 100-fold into fresh LBN (LB-1% KNO3) 6.5 media and 5 ml aliquots were transferred to culture tubes. Final concentrations of 30 mM NaNO2 and/or 2 mM Na2-EDTA were added to each tube. Cells were grown anaerobically at 37° C. mimicking a mature biofilm. Samples were taken daily for 48 hours while the cells were still in the anaerobic chamber. Samples were serially diluted in PBS, pH 7.4, and 10 μl aliquot from each dilution placed on LB agar plates and grown aerobically overnight at 37° C. CFU were enumerated the next morning and converted to CFU/ml after multiplying by the dilution factor.
# bioluminescent PA Xen41 = experiment: Broth based killing assay; conditions: for killing of PA Xen41: 2 mM Na2-EDTA and/or 30 mM NaNO2 with gel (Solosite) 1:100, LB pH 6.5, 48 hours
# Protocol: The efficacy of a formulation according to the present disclosure was tested in vitro using an overnight culture of bioluminescent PA Xen41, diluted in LB media (pH 6.5) along with a gel (Solosite®, herein SS) at a 1:100 dilution. Bioluminescent PA was used for both in vitro and in vivo experiments.
# as §1
# PAO1 = experiment: Checkerboard assay for MIC and FIC determination; conditions: strain PAO1
# Protocol: (§2) The inventors further confirmed the bactericidal activity of AB569 gel against various clinical strains of PA isolated from burn wound patients by synergy measurements using the checkerboard analysis. […] FICI=Fractional inhibitory concentration index. […] is synergistic; 0.5<FICI<1 is weak synergistic.
# (§3) 96-well polystyrene plates were filled with 100 μl of LB, pH 6.5 and 10% SS hydrogel (Smith and Nephew, London, UK). Row A was filled with 100 μl of a 4× stock of Na2-EDTA (16 mM) and […] was filled with 4× NaNO2 stock (256 mM), bringing both to a 2× concentration. Two-fold serial dilutions were performed such that a concentration gradient of each was created. Column 12 was filled with media to represent a negative control. An overnight culture of bacteria was adjusted to an OD600 of 0.5 in LB media. This was then diluted 1:1000 into fresh media, which was then added to the checkerboard plate (columns 1-11). This dilution was selected as it harbored ˜5×10^5 CFU/ml. Column 11 was the positive control. Plates were incubated at 37° C. The cell turbidity was determined using a 96 well plate reader after 24 hours inoculation. The threshold used for a positive cutoff to calculate MICs and FICs was 0.001 after blank (media) subtraction.
# [2] = test system: clinical strains of PA isolated from burn wounds; experiment: Checkerboard assay for MIC and FIC determination; conditions: for MIC EDTA / MIC NaNO2: LB pH 6.5, 10% SS hydrogel, 24 hours; for FIC NaNO2: NaNO2 in combination with EDTA
# Protocol: as §2, §3
# [3] = LB pH 6.5, 10% SS hydrogel, 24 hours
compound,measurement,setting,value
"O=C([O-])CN(CCN(CC(=O)[O-])CC(=O)O)CC(=O)O.[Na+].[Na+] [Na2-EDTA, di-sodium EDTA]",killing of clinical strains of PA,[1],efficient killing
same,killing of PA Xen41,bioluminescent PA Xen41,significant killing
same,FIC EDTA,PAO1; EDTA in combination with NaNO2,0.333 ± 0.144 mM
same,MIC EDTA,PAO1; [3],0.833 ± 0.289 mM
same,MIC EDTA,[2]; strain Burn #1-1,0.5 ± 0^ mM
same,MIC EDTA,[2]; strain Burn #1,0.833 ± 0.289 mM
same,MIC EDTA,[2]; strain Burn #2-1,0.833 ± 0.289 mM
same,MIC EDTA,[2]; strain Burn #2,0.5 ± 0^ mM
same,MIC EDTA,[2]; strain Burn #3-1,0.667 ± 0.289 mM
same,MIC EDTA,[2]; strain Burn #3,0.833 ± 0.289 mM
same,MIC EDTA,[2]; strain Burn #4-1,0.5 ± 0^ mM
same,MIC EDTA,[2]; strain Burn #4,0.667 ± 0.289 mM
same,MIC EDTA,[2]; strain Burn #5-1,0.5 ± 0^ mM
same,MIC EDTA,[2]; strain Burn #5,0.5 ± 0^ mM
same,MIC EDTA,[2]; strain Burn #6-1,0.5 ± 0^ mM
same,MIC EDTA,[2]; strain Burn #6,0.667 ± 0.289 mM
same,MIC EDTA,[2]; strain Burn #7-1,0.5 ± 0^ mM
same,MIC EDTA,[2]; strain Burn #7,0.833 ± 0.289 mM
same,MIC EDTA,[2]; strain Burn #8-1,0.5 ± 0^ mM
same,MIC EDTA,[2]; strain Burn #8,0.667 ± 0.289 mM
same,MIC EDTA,[2]; strain Burn #9-1,0.5 ± 0^ mM
same,MIC EDTA,[2]; strain Burn #9,0.5 ± 0^ mM
same,MIC EDTA,[2]; strain Burn #10-1,0.416 ± 0.144 mM
same,MIC EDTA,[2]; strain Burn #11-1,0.667 ± 0.289 mM
same,MIC EDTA,[2]; strain Burn #12-1,0.5 ± 0^ mM
O=N[O-].[Na+] [NaNO2],killing of PA Xen41,bioluminescent PA Xen41,completely killed
same,killing of PA Xen41,bioluminescent PA Xen41; listed as A-NO2^−,complete and maintained 48 hours
same,bioluminescent signals of XEN41-containing plates (IVIS),bioluminescent PA Xen41; 48 hours after treatment,elimination of bioluminescent signals
same,MIC NaNO2,PAO1; [3],18.667 ± 12.220 mM
same,FIC NaNO2,PAO1; NaNO2 in combination with EDTA,4.083 ± 3.876 mM
same,MIC NaNO2,[2]; strain Burn #1-1,26.667 ± 9.238 mM
same,FIC NaNO2,[2]; strain Burn #1-1,5.333 ± 2.309 mM
same,MIC NaNO2,[2]; strain Burn #1,18.667 ± 12.220 mM
same,FIC NaNO2,[2]; strain Burn #1,4.167 ± 3.752 mM
same,MIC NaNO2,[2]; strain Burn #2-1,26.667 ± 9.238 mM
same,FIC NaNO2,[2]; strain Burn #2-1,6.667 ± 2.309 mM
same,MIC NaNO2,[2]; strain Burn #2,14.667 ± 15.144 mM
same,FIC NaNO2,[2]; strain Burn #2,7.333 ± 7.572 mM
same,MIC NaNO2,[2]; strain Burn #3-1,21.333 ± 9.238 mM
same,FIC NaNO2,[2]; strain Burn #3-1,5.333 ± 2.309 mM
same,MIC NaNO2,[2]; strain Burn #3,24 ± 13.856 mM
same,FIC NaNO2,[2]; strain Burn #3,6.667 ± 2.309 mM
same,MIC NaNO2,[2]; strain Burn #4-1,21.333 ± 9.238 mM
same,FIC NaNO2,[2]; strain Burn #4-1,9.333 ± 6.110 mM
same,MIC NaNO2,[2]; strain Burn #4,13.333 ± 4.618 mM
same,FIC NaNO2,[2]; strain Burn #4,2.75 ± 2.165 mM
same,MIC NaNO2,[2]; strain Burn #5-1,21.333 ± 9.238 mM
same,FIC NaNO2,[2]; strain Burn #5-1,2.667 ± 1.155 mM
same,MIC NaNO2,[2]; strain Burn #5,13.333 ± 4.618 mM
same,FIC NaNO2,[2]; strain Burn #5,4.667 ± 3.055 mM
same,MIC NaNO2,[2]; strain Burn #6-1,13.333 ± 4.618 mM
same,FIC NaNO2,[2]; strain Burn #6-1,2.333 ± 1.523 mM
same,MIC NaNO2,[2]; strain Burn #6,18.667 ± 12.220 mM
same,FIC NaNO2,[2]; strain Burn #6,5.333 ± 2.309 mM
same,MIC NaNO2,[2]; strain Burn #7-1,21.333 ± 9.238 mM
same,FIC NaNO2,[2]; strain Burn #7-1,6 ± 3.464 mM
same,MIC NaNO2,[2]; strain Burn #7,24 ± 13.856 mM
same,FIC NaNO2,[2]; strain Burn #7,6.667 ± 2.309 mM
same,MIC NaNO2,[2]; strain Burn #8-1,21.333 ± 9.238 mM
same,FIC NaNO2,[2]; strain Burn #8-1,0.75 ± 0.433 mM
same,MIC NaNO2,[2]; strain Burn #8,16 ± 0 mM
same,FIC NaNO2,[2]; strain Burn #8,2.167 ± 1.756 mM
same,MIC NaNO2,[2]; strain Burn #9-1,21.333 ± 9.238 mM
same,FIC NaNO2,[2]; strain Burn #9-1,4.666 ± 3.055 mM
same,MIC NaNO2,[2]; strain Burn #9,13.333 ± 4.618 mM
same,FIC NaNO2,[2]; strain Burn #9,5.333 ± 2.309 mM
same,MIC NaNO2,[2]; strain Burn #10-1,16 ± 0 mM
same,FIC NaNO2,[2]; strain Burn #10-1,4 ± 0 mM
same,MIC NaNO2,[2]; strain Burn #11-1,32 ± 27.713 mM
same,FIC NaNO2,[2]; strain Burn #11-1,8 ± 0 mM
same,MIC NaNO2,[2]; strain Burn #12-1,26.667 ± 9.238 mM
same,FIC NaNO2,[2]; strain Burn #12-1,6 ± 3.464 mM
